Species on record: Rattus norvegicus
Test: Open TG-GATES - Regimen: Daily Repeat
Assay type: toxicity, organism-based, Sprague-Dawley
Set-up: regimen Daily Repeat, gender Male, age 6 weeks
Conditions: in vivo, po, route gavage; for TG / TP / gamma-GTP / ALT / AST / CRE / Ca / Cl / DBIL / GLC / IP / K / LDH / RALB / TBIL / ALP / TC: tissue Plasma; for KIDNEY_L / KIDNEY_R / KIDNEY_TOTAL: tissue Kidney
[1] = 30 mg/kg, […], dose level Middle, time 28 day
[2] = 100 mg/kg, 72 h, dose level High, time 3 day
[3] = 100 mg/kg, 72 h, tissue Blood, dose level High, time 3 day
[4] = 100 mg/kg, […], dose level High, time 7 day
[5] = 100 mg/kg, […], dose level High, time 14 day
[6] = 100 mg/kg, […], dose level High, time 28 day
[7] = 100 mg/kg, […], tissue Blood, dose level High, time 7 day
[8] = 100 mg/kg, […], tissue Blood, dose level High, time 14 day
[9] = 100 mg/kg, […], tissue Blood, dose level High, time 28 day

`Cn1c(=O)c2c(ncn2C)n(C)c1=O` [CAFFEINE] gave a TG [1] of 88.6 mg/dL, a TP [1] of 6.1 g/dL and a gamma-GTP [1] of 2 IU/L. The TERMINAL_BW [2] was 205.8 g, the APTT [3] was 22.4 s and the Bas [3] was 0%. For the same compound, the Eos [3] was 1%, the Fbg [3] was 319.6 mg/dL and the Lym [3] was 74.4%. For the same compound, the MCHC [3] was 33.8%, the MCV [3] was 60.6 fL and the Mono [3] was 1.6%. The Neu [3] was 22.4%, the PT [3] was 15.8 s and the Plat [3] was 126.2 x10_4/uL. It also gave an RBC [3] of 686 x10_4/ul, a Ret [3] of 4.3% and a WBC [3] of 81.5 x10_2/uL. The KIDNEY_L [2] was 0.9 g, the KIDNEY_R [2] was 0.9 g and the KIDNEY_TOTAL [2] was 1.8 g. For the same compound, the ALT [2] was 38 IU/L, the AST [2] was 70.2 IU/L and the CRE [2] was 0.2 mg/dL. The Ca [2] was 10.8 mg/dL, the Cl [2] was 108.6 meq/L and the DBIL [2] was 0 mg/dL. The GLC [2] was 169.6 mg/dL, the IP [2] was 8.9 mg/dL and the K [2] was 4.4 meq/L. The LDH [2] was 159.6 IU/L, the RALB [2] was 3.2 g/dL and the TBIL [2] was 0.018 mg/dL. For the same compound, the TG [2] was 43 mg/dL, the TP [2] was 5.8 g/dL and the gamma-GTP [2] was 1 IU/L. It also gave a TERMINAL_BW [4] of 226.6 g, a TERMINAL_BW [5] of 270 g and a TERMINAL_BW [6] of 302.8 g. For the same compound, the APTT [7] was 22.8 s, the Bas [7] was 0% and the Eos [7] was 1%. The Fbg [7] was 321.8 mg/dL, the Lym [7] was 80.8% and the MCHC [7] was 34%. It also gave an MCV [7] of 60.4 fL, a Mono [7] of 2% and a Neu [7] of 15.2%. It also gave a PT [7] of 15.3 s, a Plat [7] of 109.2 x10_4/uL and an RBC [7] of 705.4 x10_4/ul. It also gave a Ret [7] of 4.8%, a WBC [7] of 100.2 x10_2/uL and an APTT [8] of 24.3 s. For the same compound, the Bas [8] was 0%, the Eos [8] was 0.4% and the Fbg [8] was 320.6 mg/dL. It also gave a Ht [8] of 44.2%, a Lym [8] of 80% and an MCH [8] of 20.1 pg. It also gave an MCV [8] of 58.9 fL, a Mono [8] of 2% and a Neu [8] of 16.6%. For the same compound, the PT [8] was 15.5 s, the Plat [8] was 110.4 x10_4/uL and the RBC [8] was 750.4 x10_4/ul. For the same compound, the Ret [8] was 3.5%, the WBC [8] was 105.7 x10_2/uL and the APTT [9] was 23.7 s. For the same compound, the Bas [9] was 0%, the Eos [9] was 1% and the Fbg [9] was 308.2 mg/dL. The Lym [9] was 75.6%, the MCH [9] was 19.1 pg and the MCHC [9] was 34.9%. It also gave an MCV [9] of 54.8 fL, a Mono [9] of 2.8% and a Neu [9] of 18.8%. The PT [9] was 15.9 s, the Plat [9] was 97.1 x10_4/uL and the RBC [9] was 829 x10_4/ul. It also gave a Ret [9] of 2.1%, a WBC [9] of 98.3 x10_2/uL and a KIDNEY_L [4] of 1 g. It also gave a KIDNEY_R [4] of 1 g, a KIDNEY_TOTAL [4] of 2 g and a KIDNEY_L [5] of 1.2 g. The KIDNEY_R [5] was 1.2 g, the KIDNEY_TOTAL [5] was 2.4 g and the KIDNEY_L [6] was 1.2 g. The KIDNEY_R [6] was 1.2 g, the KIDNEY_TOTAL [6] was 2.5 g and the ALP [4] was 1284.2 IU/L. It also gave an ALT [4] of 41.2 IU/L, an AST [4] of 74.6 IU/L and a CRE [4] of 0.1 mg/dL. For the same compound, the Ca [4] was 10.4 mg/dL, the Cl [4] was 106.2 meq/L and the DBIL [4] was 0 mg/dL. For the same compound, the GLC [4] was 182.8 mg/dL, the IP [4] was 8.5 mg/dL and the K [4] was 4.2 meq/L. For the same compound, the LDH [4] was 175.6 IU/L, the RALB [4] was 3 g/dL and the TBIL [4] was 0.016 mg/dL. For the same compound, the TC [4] was 84 mg/dL, the TG [4] was 77.4 mg/dL and the TP [4] was 5.7 g/dL. It also gave a gamma-GTP [4] of 1.6 IU/L, an ALP [5] of 1222.6 IU/L and an ALT [5] of 46.8 IU/L. For the same compound, the AST [5] was 80.6 IU/L, the CRE [5] was 0.2 mg/dL and the Ca [5] was 10.6 mg/dL. The Cl [5] was 105.8 meq/L, the DBIL [5] was 0 mg/dL and the GLC [5] was 184.8 mg/dL. It also gave an IP [5] of 8 mg/dL, a K [5] of 4.2 meq/L and an LDH [5] of 140.2 IU/L. The RALB [5] was 3.1 g/dL, the TBIL [5] was 0.022 mg/dL and the TC [5] was 80.4 mg/dL. For the same compound, the TG [5] was 83.4 mg/dL, the TP [5] was 5.8 g/dL and the gamma-GTP [5] was 2 IU/L. For the same compound, the ALP [6] was 1068.4 IU/L, the ALT [6] was 53.8 IU/L and the AST [6] was 85.4 IU/L. The CRE [6] was 0.2 mg/dL, the Ca [6] was 10.4 mg/dL and the Cl [6] was 106.2 meq/L. For the same compound, the DBIL [6] was 0 mg/dL, the GLC [6] was 180.8 mg/dL and the IP [6] was 7.8 mg/dL. It also gave a K [6] of 4.2 meq/L, an LDH [6] of 163 IU/L and an RALB [6] of 3.2 g/dL. For the same compound, the TBIL [6] was 0.034 mg/dL, the TC [6] was 80.2 mg/dL and the TG [6] was 77 mg/dL. The TP [6] was 6 g/dL and the gamma-GTP [6] was 2.6 IU/L.

Source: ChEMBL document CHEMBL3885861, “Open TG-GATES”
